# How the values were obtained:
# [1] = tested on: goosegrass; test: Test C pre-/postemergence herbicide test; format: in vivo, Eleusine indica
# In short: (§1)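 Visual injury scores run from 0 (no effect) to 100 (complete control), assessed relative to untreated controls 12 to 14 days after treatment in the greenhouse. Chemicals were formulated in a non-phytotoxic solvent mixture with surfactant and applied to soil after planting or to emerged plants at the 1- to 4-leaf stage.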
# [2] = tested on: eastern black nightshade; test: Test C pre-/postemergence herbicide test; format: in vivo, Solanum ptycanthum
# In short: as §1
# [3] = tested on: rice; test: Test B flooded paddy test; format: in vivo, Oryza sativa; conditions: 1000 g ai/ha, visual rating, scale 0 to 100 (0 no effect, 100 complete control), 13 to 15 days
# In short: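 Each value is a visual 0–100 response rating taken against controls 13 to 15 days after treatment in the greenhouse. Plants received formulated chemical postemergence at the 1- to 4-leaf stage or, in flooded paddy, at the 2-leaf stage.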
# [4] = tested on: corn; test: Test C pre-/postemergence herbicide test; format: in vivo, Zea mays
# In short: as §1
# [5] = tested on: barnyardgrass; test: Test B flooded paddy test; format: in vivo, Echinochloa crus-galli; conditions: 1000 g ai/ha, visual rating, scale 0 to 100 (0 no effect, 100 complete control), 13 to 15 days
# In short: (§2)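 Paddy species grown to the 2-leaf stage under flooding; blackgrass sprayed postemergence at 2–18 cm (1- to 4-leaf stage). Plants kept in a greenhouse for 13 to 15 days, then visually rated against controls on 0 (no effect) to 100 (complete control).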
# [6] = tested on: lambsquarters; test: Test C pre-/postemergence herbicide test; format: in vivo, Chenopodium album
# In short: as §1
# [7] = tested on: ducksalad; test: Test B flooded paddy test; format: in vivo, Heteranthera limosa; conditions: 1000 g ai/ha, visual rating, scale 0 to 100 (0 no effect, 100 complete control), 13 to 15 days
# In short: as §2
# [8] = tested on: velvetleaf; test: Test C pre-/postemergence herbicide test; format: in vivo, Abutilon theophrasti
# In short: as §1
# [9] = tested on: cocklebur; test: Test C pre-/postemergence herbicide test; format: in vivo, Xanthium strumarium; conditions: for Cocklebur plant response rating: 500 g ai/ha
# In short: as §1
# [10] = tested on: johnsongrass; test: Test C pre-/postemergence herbicide test; format: in vivo, Sorghum halepense
# In short: as §1
# [11] = 62 g ai/ha, preemergence, scale 0 to 100
# [12] = 125 g ai/ha, scale 0 (no effect) to 100 (complete control), visual, 12 to 14 days, preemergence
# [13] = 250 g ai/ha, scale 0-100, preemergence
# [14] = Preemergence, 500 g ai/ha, scale 0 to 100, 0 no effect, 100 complete control
# [15] = Preemergence, scale 0 to 100, 0 no effect, 100 complete control
# [16] = 500 g ai/ha, scale 0 to 100 (0 no effect, 100 complete control), visual, 12 to 14 days, preemergence
# [17] = Postemergence, 500 g ai/ha, scale 0 to 100
# [18] = Postemergence, 250 g ai/ha, scale 0 to 100, 0 no effect, 100 complete control
# [19] = postemergence, 125 g ai/ha, scale 0 to 100
# [20] = postemergence, 62 g ai/ha, scale 0 to 100
smiles,measurement,setting,value
CCc1nc(C(C)(C)C)sc1C(=O)Nc1cccc(C(=O)N(CC)CC)c1 [Compound 205],"Plant response rating, Goosegrass",[1]; [11],50
same,"Plant response rating, Goosegrass",[1]; [12],70
same,"Plant response rating, Goosegrass",[1]; [13],80
same,Goosegrass plant response rating,[1]; [14],95
same,"Plant response rating, Nightshade",[2]; [11],80
same,"Plant response rating, Nightshade",[2]; [12],100
same,"Plant response rating, Nightshade",[2]; [13],100
same,Nightshade plant response rating,[2]; [14],100
same,Rice plant response rating,[3],60
same,"Plant response rating, Corn",[4]; [11],0
same,"Plant response rating, Corn",[4]; [12],0
same,"Plant response rating, Corn",[4]; [13],0
same,Corn plant response rating,[4]; [14],40
same,Barnyardgrass plant response rating,[5],70
same,"Plant response rating, Lambsquarters",[6]; [11],85
same,"Plant response rating, Lambsquarters",[6]; [12],90
same,"Plant response rating, Lambsquarters",[6]; [13],90
same,Lambsquarters plant response rating,[6]; [14],100
same,Ducksalad plant response rating,[7],50
same,"Plant response rating, Velvetleaf",[8]; [11],10
same,"Plant response rating, Velvetleaf",[8]; [12],40
same,"Plant response rating, Velvetleaf",[8]; [13],60
same,Velvetleaf plant response rating,[8]; [14],100
same,"Plant response rating, Cocklebur",[9]; [11],0
same,"Plant response rating, Cocklebur",[9]; [12],0
same,"Plant response rating, Cocklebur",[9]; [13],0
same,Cocklebur plant response rating,[9]; [15],0
same,"Plant response rating, Johnsongrass",[10]; [11],0
same,"Plant response rating, Johnsongrass",[10]; [12],10
same,"Plant response rating, Johnsongrass",[10]; [13],60
same,Johnsongrass plant response rating,[10]; [14],85
CCc1nc(C(C)(C)C)sc1C(=O)Nc1cccc(C(=O)NCC2CC2)c1 [Compound 212],"Plant response rating, Goosegrass",[1]; [11],10
same,"Plant response rating, Goosegrass",[1]; [12],60
same,"Plant response rating, Goosegrass",[1]; [13],95
same,"Plant response rating, Goosegrass",[1]; [16],100
same,Goosegrass plant response rating,[1]; [17],30
same,"Plant response rating, Goosegrass",[1]; [18],25
same,"Plant response rating, Goosegrass",[1]; [19],10
same,"Plant response rating, Goosegrass",[1]; [20],10
same,"Plant response rating, Nightshade",[2]; [11],70
same,"Plant response rating, Nightshade",[2]; [12],100
same,"Plant response rating, Nightshade",[2]; [13],100
same,"Plant response rating, Nightshade",[2]; [16],100
same,Rice plant response rating,[3],70
same,"Plant response rating, Corn",[4]; [11],0
same,"Plant response rating, Corn",[4]; [12],0
same,"Plant response rating, Corn",[4]; [13],30
same,"Plant response rating, Corn",[4]; [16],40
same,Corn plant response rating,[4]; [17],40
same,"Plant response rating, Corn",[4]; [18],40
same,"Plant response rating, Corn",[4]; [19],35
same,"Plant response rating, Corn",[4]; [20],15
same,Barnyardgrass plant response rating,[5],50
same,"Plant response rating, Lambsquarters",[6]; [11],100
same,"Plant response rating, Lambsquarters",[6]; [12],100
same,"Plant response rating, Lambsquarters",[6]; [13],100
same,"Plant response rating, Lambsquarters",[6]; [16],100
same,Lambsquarters plant response rating,[6]; [17],100
same,"Plant response rating, Lambsquarters",[6]; [18],90
same,"Plant response rating, Lambsquarters",[6]; [19],90
same,"Plant response rating, Lambsquarters",[6]; [20],80
same,Ducksalad plant response rating,[7],80
same,"Plant response rating, Velvetleaf",[8]; [11],20
same,"Plant response rating, Velvetleaf",[8]; [12],100
same,"Plant response rating, Velvetleaf",[8]; [13],100
same,"Plant response rating, Velvetleaf",[8]; [16],100
same,Velvetleaf plant response rating,[8]; [17],70
same,"Plant response rating, Velvetleaf",[8]; [18],50
same,"Plant response rating, Velvetleaf",[8]; [20],0
same,"Plant response rating, Cocklebur",[9]; [11],0
same,"Plant response rating, Cocklebur",[9]; [12],0
same,"Plant response rating, Cocklebur",[9]; [13],5
same,Cocklebur plant response rating,"[9]; Postemergence, scale 0 to 100",70
same,"Plant response rating, Cocklebur",[9]; [18],70
same,Cocklebur plant response rating,[9]; [15],95
same,"Plant response rating, Cocklebur",[9]; [19],60
same,"Plant response rating, Cocklebur",[9]; [20],10
same,"Plant response rating, Johnsongrass",[10]; [11],0
same,"Plant response rating, Johnsongrass",[10]; [12],0
same,"Plant response rating, Johnsongrass",[10]; [13],50
same,"Plant response rating, Johnsongrass",[10]; [16],60
same,Johnsongrass plant response rating,[10]; [17],35
same,"Plant response rating, Johnsongrass",[10]; [18],35
same,"Plant response rating, Johnsongrass",[10]; [19],30
same,"Plant response rating, Johnsongrass",[10]; [20],0
"CCNC(=O)c1cccc(NC(=O)c2nn(C(C)(C)C)cc2Br)c1 [Compound 221, 4-bromo-1-(1,1-dimethylethyl)-N-[3-[(ethylamino)carbonyl]phenyl]-1H-pyrazole-3-carboxamide]",pest or weed control at 62 g/ha,"[1]; Eleusine indica, pre-emergence, 312 h, 62 g ai/ha, preemergence, scale 0 to 100, read-out: Plant response rating, Goosegrass",0%
same,pest or weed control at 125 g/ha,"[1]; Eleusine indica, pre-emergence, 312 h, 125 g ai/ha, scale 0 (no effect) to 100 (complete control), visual, 12 to 14 days, read-out: Plant response rating, Goosegrass",0%
same,pest or weed control at 250 g/ha,"[1]; Eleusine indica, pre-emergence, 312 h, 250 g ai/ha, scale 0-100, read-out: Plant response rating, Goosegrass",0%
same,pest or weed control at 500 g/ha,"[1]; Eleusine indica, pre-emergence, 312 h, 500 g ai/ha, scale 0 to 100 (0 no effect, 100 complete control), visual, 12 to 14 days, read-out: Plant response rating, Goosegrass",50%
same,pest or weed control at 62 g/ha,"[2]; pre-emergence, 62 g ai/ha, preemergence, scale 0 to 100, read-out: Plant response rating, Nightshade",30%
same,pest or weed control at 125 g/ha,"[2]; pre-emergence, 125 g ai/ha, scale 0 (no effect) to 100 (complete control), visual, 12 to 14 days, read-out: Plant response rating, Nightshade",50%
same,pest or weed control at 250 g/ha,"[2]; pre-emergence, 250 g ai/ha, scale 0-100, read-out: Plant response rating, Nightshade",70%
same,pest or weed control at 500 g/ha,"[2]; pre-emergence, 500 g ai/ha, scale 0 to 100 (0 no effect, 100 complete control), visual, 12 to 14 days, read-out: Plant response rating, Nightshade",100%
same,plant injury at 1000 g/ha,"[3]; Oryza sativa, 336 h, read-out: Rice plant response rating",20%
same,"Corn plant response rating (crop injury, 0 = no effect, 100 = complete kill) at 62 g/ha","[4]; Zea mays, pre-emergence, 312 h, 62 g ai/ha, preemergence, scale 0 to 100",0%
same,"Corn plant response rating (crop injury, 0 = no effect, 100 = complete kill) at 125 g/ha","[4]; Zea mays, pre-emergence, 312 h, 125 g ai/ha, scale 0 (no effect) to 100 (complete control), visual, 12 to 14 days",0%
same,"Corn plant response rating (crop injury, 0 = no effect, 100 = complete kill) at 250 g/ha","[4]; Zea mays, pre-emergence, 312 h, 250 g ai/ha, scale 0-100",0%
same,"Corn plant response rating (crop injury, 0 = no effect, 100 = complete kill) at 500 g/ha","[4]; Zea mays, pre-emergence, 312 h, 500 g ai/ha, scale 0 to 100 (0 no effect, 100 complete control), visual, 12 to 14 days",10%
same,pest or weed control at 1000 g/ha,"[5]; Echinochloa crus-galli, 336 h, read-out: Barnyardgrass plant response rating",40%
same,pest or weed control at 62 g/ha,"[6]; Chenopodium album, pre-emergence, 62 g ai/ha, preemergence, scale 0 to 100, read-out: Plant response rating, Lambsquarters",0%
same,pest or weed control at 125 g/ha,"[6]; Chenopodium album, pre-emergence, 125 g ai/ha, scale 0 (no effect) to 100 (complete control), visual, 12 to 14 days, read-out: Plant response rating, Lambsquarters",20%
same,pest or weed control at 250 g/ha,"[6]; Chenopodium album, pre-emergence, 250 g ai/ha, scale 0-100, read-out: Plant response rating, Lambsquarters",90%
same,pest or weed control at 500 g/ha,"[6]; Chenopodium album, pre-emergence, 500 g ai/ha, scale 0 to 100 (0 no effect, 100 complete control), visual, 12 to 14 days, read-out: Plant response rating, Lambsquarters",100%
same,pest or weed control at 1000 g/ha,"[7]; Heteranthera limosa, 336 h, read-out: Ducksalad plant response rating",50%
same,pest or weed control at 62 g/ha,"[8]; Abutilon theophrasti, pre-emergence, 62 g ai/ha, preemergence, scale 0 to 100, read-out: Plant response rating, Velvetleaf",0%
same,pest or weed control at 250 g/ha,"[8]; Abutilon theophrasti, pre-emergence, 250 g ai/ha, scale 0-100, read-out: Plant response rating, Velvetleaf",60%
same,pest or weed control at 500 g/ha,"[8]; Abutilon theophrasti, pre-emergence, 500 g ai/ha, scale 0 to 100 (0 no effect, 100 complete control), visual, 12 to 14 days, read-out: Plant response rating, Velvetleaf",80%
same,pest or weed control at 62 g/ha,"[9]; Xanthium strumarium, pre-emergence, 312 h, 62 g ai/ha, preemergence, scale 0 to 100, read-out: Plant response rating, Cocklebur",0%
same,pest or weed control at 125 g/ha,"[9]; Xanthium strumarium, pre-emergence, 312 h, 125 g ai/ha, scale 0 (no effect) to 100 (complete control), visual, 12 to 14 days, read-out: Plant response rating, Cocklebur",0%
same,pest or weed control at 250 g/ha,"[9]; Xanthium strumarium, pre-emergence, 312 h, 250 g ai/ha, scale 0-100, read-out: Plant response rating, Cocklebur",0%
same,pest or weed control at 62 g/ha,"[10]; Sorghum halepense, pre-emergence, 62 g ai/ha, preemergence, scale 0 to 100, read-out: Plant response rating, Johnsongrass",0%
same,pest or weed control at 125 g/ha,"[10]; Sorghum halepense, pre-emergence, 125 g ai/ha, scale 0 (no effect) to 100 (complete control), visual, 12 to 14 days, read-out: Plant response rating, Johnsongrass",0%
same,pest or weed control at 250 g/ha,"[10]; Sorghum halepense, pre-emergence, 250 g ai/ha, scale 0-100, read-out: Plant response rating, Johnsongrass",10%
same,pest or weed control at 500 g/ha,"[10]; Sorghum halepense, pre-emergence, 500 g ai/ha, scale 0 to 100 (0 no effect, 100 complete control), visual, 12 to 14 days, read-out: Plant response rating, Johnsongrass",80%

# — patent US20060069132A1, “Azolecarboxamide herbicides” (priority 2004, published 2006)
